One assay has as its system rat. The note with it: oral administration, increase of sugar excreted in urine, decrease of blood sugar; cited from earlier work.
Another assay has as its system male Wistar rats. Kind of assay: Evaluation of effect on urinary excretion of sugar in rats (Example 8). It is filed as in vivo. As to conditions: rat, oral, 24 hours. As for the experimental part: Five-week-old male Wistar rats (purchased from Charles River Japan, Inc.) were housed in metabolic cages for about one week prior to the experiment. A test compound was suspended in olive oil, so that solutions of the compound with concentrations of […] were prepared to have a dose of 5 ml/kg body weight of the rat. After the rats were not fed for 4 hours, the test compound was orally administered to the rats at a dosage of 10, 30 and 100 mg/kg at 11 a.m. Urine of the rat was collected for a given period of time from the time immediately after the administration to 24 hours after the administration, and the urine volume was measured. Subsequently, the glucose concentration in urine was determined by the glucose oxidase method and the daily amount of glucose excreted in urine per individual was calculated.
As the positive control compound, 3-(benzo[b]furan-5-yl)-2′,6′-dihydroxy-4′-methylpropiophenone 2′-O-(6-O-methoxycarbonyl-β-D-glucopyranoside) was used.

Consider `COC(=O)OC[C@H]1O[C@@H](Oc2cc(C)cc(O)c2C(=O)CCc2ccc3occc3c2)[C@H](O)[C@@H](O)[C@@H]1O` [Positive Control Compound, 3-(benzo[b]furan-5-yl)-2′,6′-dihydroxy-4′-methylpropiophenone 2′-O-(6-O-methoxycarbonyl-β-D-glucopyranoside)], for which, in the assay with rat, the “dose needed to exhibit the efficacy” value is 100 mg/kg. For the same molecule, the results for the “The amount of glucose excreted in urine” value in the assay with male Wistar rats (10 mg/kg), in the assay with male Wistar rats (30 mg/kg) and with male Wistar rats (100 mg/kg) were 2 mg, 78 mg and 274 mg, respectively.

These data come from patent publication US6908905B2, “N-substituted pyrazole-O-glycoside derivatives and therapeutic agent for diabetes containing the same” (Ajinomoto Co., Inc., priority 2001, dated 2005).
